Key:
[1] = tested on: Vitis vinifera; test: Phytotoxicity against grape leaf by leaf disk assay; assay type: organism-based; conditions: in vivo
[2] = tested on: Vitis vinifera; test: Phytotoxicity against grape leaf assessed as decrease in chlorophyll level after 64 hrs by leaf disk assay relative to control; assay type: organism-based; parameters: scale not given: the % may be the effect or the level left; conditions: in vivo

Structure (SMILES)	Activity [1]	Activity [2]
C=C(C)C#Cc1cc(C=O)ccc1O [EUTYPINE]	Active	
CC1(C)C=Cc2cc(CO)ccc2O1 [EULATACHROMENE]		60%
C=C(C)C#Cc1cc(O)ccc1O [SICCAYNE]	Not Active	
